Data from patent publication US20230023092A1, “TREATMENT OF DEPRESSION AND OTHER VARIOUS DISORDERS WITH PSILOCYBIN” (COMPASS […], priority 2019, published 2023).

Test system: healthy subjects
Experiment: Symptom Checklist-90 Item (SCL-90)
Format: in vivo, human
Source text: In some embodiments, the Symptom Checklist-90 item (SCL-90) questionnaire is used to evaluate the safety and/or efficacy of psilocybin. The SCL-90 is a relatively brief self-report psychometric instrument designed to evaluate a broad range of psychological problems and symptoms of psychopathology. In some embodiments, the SCL-90 is used to assess somatization, obsessive-compulsive behaviors, interpersonal sensitivity, depression, anxiety, hostility, phobic anxiety, paranoid ideation, and psychoticism of a subject treated according to the methods of the disclosure. The 90 items in the questionnaire are scored on a 5-point Likert scale, indicating the rate of occurrence of the symptom during the time reference. In some embodiments, after treating according to the methods of the disclosure, a subject's SCL-90 score decreases by about 5% to about 100%, for example, by about 5%, about 10%, about 15%, about 20%, about 25%, about 30%, about 35%, about 40%, about 45%, about 50%, about 55%, about 60%, about 65%, about 70%, about 75%, about 80%, about 85%, about 90%, about 95%, or about 100%.
The Neuroticism Extraversion Openness-Five Factor Inventory (NEO-FFI) and Symptom Checklist-90 Item (SCL-90) were administered. Details of the MMRM applied to the change from baseline scores for the NEO-FFI and SCL-90 are provided below in Table 2Q.

[1] = Day 7, psilocybin 25 mg - 10 mg
[2] = Day 7, psilocybin 25 mg - placebo
[3] = Day 84, psilocybin 10 mg - placebo
[4] = Day 84, psilocybin 25 mg - 10 mg
[5] = Day 84, psilocybin 25 mg - placebo

CN(C)CCc1c[nH]c2cccc(OP(=O)(O)O)c12 [Psilocybin, psilocybin]
SCL-90 anxiety change from baseline, LS mean (Day 7, psilocybin 25 mg): −0.0
SCL-90 depression change from baseline, LS mean (Day 7, psilocybin 25 mg): 0.0
SCL-90 interpersonal sensitivity change from baseline, LS mean (Day 7, psilocybin 25 mg): 0.0
SCL-90 obsessive compulsive change from baseline, LS mean (Day 7, psilocybin 25 mg): −0.1
SCL-90 paranoid ideation change from baseline, LS mean (Day 7, psilocybin 25 mg): 0.1
SCL-90 phobic anxiety change from baseline, LS mean (Day 7, psilocybin 25 mg): 0.0
SCL-90 psychoticism change from baseline, LS mean (Day 7, psilocybin 25 mg): 0.0
SCL-90-somatisation change from baseline, LS mean difference [1]: −0.0
SCL-90 anger hostility change from baseline, LS mean difference [1]: 0.0
SCL-90 anxiety change from baseline, LS mean difference [1]: 0.0
SCL-90 depression change from baseline, LS mean difference [1]: −0.0
SCL-90 interpersonal sensitivity change from baseline, LS mean difference [1]: 0.1
SCL-90 obsessive compulsive change from baseline, LS mean difference [1]: −0.0
SCL-90 paranoid ideation change from baseline, LS mean difference [1]: 0.1
SCL-90 phobic anxiety change from baseline, LS mean difference [1]: 0.0
SCL-90 psychoticism change from baseline, LS mean difference [1]: 0.0
SCL-90-somatisation change from baseline, LS mean difference [2]: 0.1
SCL-90 anger hostility change from baseline, LS mean difference [2]: −0.0
SCL-90 anxiety change from baseline, LS mean difference [2]: 0.0
SCL-90 depression change from baseline, LS mean difference [2]: 0.0
SCL-90 interpersonal sensitivity change from baseline, LS mean difference [2]: 0.0
SCL-90 obsessive compulsive change from baseline, LS mean difference [2]: 0.1
SCL-90 paranoid ideation change from baseline, LS mean difference [2]: 0.1
SCL-90 phobic anxiety change from baseline, LS mean difference [2]: 0.0
SCL-90 psychoticism change from baseline, LS mean difference [2]: 0.0
SCL-90-somatisation change from baseline, LS mean (Day 84, psilocybin 10 mg): 0.0
SCL-90 anger hostility change from baseline, LS mean (Day 84, psilocybin 10 mg): 0.0
SCL-90 anxiety change from baseline, LS mean (Day 84, psilocybin 10 mg): −0.0
SCL-90 depression change from baseline, LS mean (Day 84, psilocybin 10 mg): 0.1
SCL-90 interpersonal sensitivity change from baseline, LS mean (Day 84, psilocybin 10 mg): 0.0
SCL-90 obsessive compulsive change from baseline, LS mean (Day 84, psilocybin 10 mg): −0.0
SCL-90 paranoid ideation change from baseline, LS mean (Day 84, psilocybin 10 mg): 0.1
SCL-90 phobic anxiety change from baseline, LS mean (Day 84, psilocybin 10 mg): 0.0
SCL-90 psychoticism change from baseline, LS mean (Day 84, psilocybin 10 mg): −0.0
SCL-90-somatisation change from baseline, LS mean difference [3]: 0.0
SCL-90 anger hostility change from baseline, LS mean difference [3]: −0.0
SCL-90 anxiety change from baseline, LS mean difference [3]: −0.1
SCL-90 depression change from baseline, LS mean difference [3]: 0.0
SCL-90 interpersonal sensitivity change from baseline, LS mean difference [3]: −0.1
SCL-90 obsessive compulsive change from baseline, LS mean difference [3]: 0.1
SCL-90 paranoid ideation change from baseline, LS mean difference [3]: 0.1
SCL-90 phobic anxiety change from baseline, LS mean difference [3]: −0.0
SCL-90 psychoticism change from baseline, LS mean difference [3]: −0.0
SCL-90-somatisation change from baseline, LS mean (Day 84, psilocybin 25 mg): 0.0
SCL-90 anger hostility change from baseline, LS mean (Day 84, psilocybin 25 mg): 0.0
SCL-90 anxiety change from baseline, LS mean (Day 84, psilocybin 25 mg): −0.0
SCL-90 depression change from baseline, LS mean (Day 84, psilocybin 25 mg): 0.1
SCL-90 interpersonal sensitivity change from baseline, LS mean (Day 84, psilocybin 25 mg): 0.0
SCL-90 obsessive compulsive change from baseline, LS mean (Day 84, psilocybin 25 mg): −0.1
SCL-90 paranoid ideation change from baseline, LS mean (Day 84, psilocybin 25 mg): 0.1
SCL-90 phobic anxiety change from baseline, LS mean (Day 84, psilocybin 25 mg): 0.0
SCL-90 psychoticism change from baseline, LS mean (Day 84, psilocybin 25 mg): 0.0
SCL-90-somatisation change from baseline, LS mean difference [4]: 0.0
SCL-90 anger hostility change from baseline, LS mean difference [4]: −0.0
SCL-90 anxiety change from baseline, LS mean difference [4]: 0.0
SCL-90 depression change from baseline, LS mean difference [4]: 0.0
SCL-90 interpersonal sensitivity change from baseline, LS mean difference [4]: 0.0
SCL-90 obsessive compulsive change from baseline, LS mean difference [4]: −0.1
SCL-90 paranoid ideation change from baseline, LS mean difference [4]: 0.0
SCL-90 phobic anxiety change from baseline, LS mean difference [4]: 0.0
SCL-90 psychoticism change from baseline, LS mean difference [4]: 0.0
SCL-90-somatisation change from baseline, LS mean difference [5]: 0.0
SCL-90 anger hostility change from baseline, LS mean difference [5]: −0.0
SCL-90 anxiety change from baseline, LS mean difference [5]: −0.0
SCL-90 depression change from baseline, LS mean difference [5]: 0.0
SCL-90 interpersonal sensitivity change from baseline, LS mean difference [5]: −0.0
SCL-90 obsessive compulsive change from baseline, LS mean difference [5]: 0.0
SCL-90 paranoid ideation change from baseline, LS mean difference [5]: 0.1
SCL-90 phobic anxiety change from baseline, LS mean difference [5]: 0.0
SCL-90 psychoticism change from baseline, LS mean difference [5]: −0.0
